pIC50: −log10 of the molar value. Like-named read-outs stand apart in the source and are kept apart here.
Tests used:
RAW 264.7 cells [1] = experiment: Whole cell inhibition assay for urea output; format: cell-based, murine; conditions: for pIC50: interpolated, γIFN+LPS-activated RAW 264.7, 18 hours, read-out: I.C.50 (in parenthesis), inhibition of urea production; for urea % suppression of induced production: γIFN+LPS, 18 hours
Experimental: (§1) RAW 264.7 cells are plated in microculture wells at 1×10^6/ml in RPMI 1640 with 10% FBS and otherwise standard culture conditions and allowed to adhere for 5 hours. They are then activated with 25 U/ml γIFN and 0.1 μg/ml LPS in the presence of test inhibitors. The urea concentration present in the supernatant media, after 18 hours of culture, is determined by a colorimetric blood urea nitrogen diacetylmonoxime assay performed on an aliquot of the culture supernatant (Sigma Chem. Co., St. Louis, Mo.) and inhibition is expressed as the percentage urea compared to that of a parallel control culture treated identically except that the concentration of added inhibitor is zero.
(§2) Various concentrations of the test compounds are included in the media of the stimulated RAW 264.7 cells in culture. The concentration of urea and/or nitrite after 18 hours of activated culture is determined and compared to the uninhibited control value obtained from at least one parallel culture. The fractional reduction is calculated for each concentration of inhibitor and the IC50 (concentration giving 50% reduction) is interpolated. Compounds were dissolved in media with mild heat (60° C.). Those with limited solubility were dissolved in base. The concentration of stock solutions of those compounds which were not completely soluble was determined by OD280.

RAW 264.7 cells [2] = experiment: Whole cell inhibition assay for NO (nitrite) output; format: cell-based, murine; conditions: γIFN+LPS, 18 hours
Experimental: as §1
The production of nitrite is determined by assay of the same tissue culture supernatant by means of a calorimetric assay. Briefly, 4 parts of test solution containing 1% (w/v) sulfanilamide, 0.1% naphthylethylenediamine di-HCl (Griess Reagent), 2.5% H3PO4 and one part media are mixed, incubated for 10 minutes and the absorbance at 560 nm determined. The nitrite concentrations are interpolated from reference curves prepared using NaNO2.
as §2
(§3) This section describes experiments that measure the concentration of Compound No. 14 needed to inhibit arginine uptake and NO output. The techniques employed were described in section 7.1 supra.

[3] = Solubility on preparing test solutions; format: physicochemical; conditions: preparation of test solutions
Experimental: as §2

RAW 264.7 cells [4] = experiment: Whole cell inhibition assay for arginine uptake; format: cell-based, murine; conditions: γIFN+LPS, 8 hours
Experimental: In the embodiment described in the working example herein, a test population of cells was cultured for about 3 hours so that the cells became firmly adherent. Various concentrations of the potential inhibitors were then added to parallel cultures. One hour later the macrophage stimulators, e.g. including, but not limited to LPS and γIFN, were added. Eighteen hours later the cells were washed in a warm balanced salt solution supplemented with glucose. Carrier-free radiolabelled arginine was added; after 5 minutes, active uptake of arginine was stopped by washing the cell three times with buffer, chilled to 0° C., containing 10 mM unlabeled arginine to displace any externally bound label. The contents of the washed cells are solubilized in 100 μl of formic acid and counted by standard techniques.
RAW 264.7 cells are plated in standard 96-well microculture plates at a concentration of 10^5/well and allowed to adhere for from 2 hours to overnight. The medium is then replaced with medium containing the compound to be tested. One hour later, the medium is supplemented so as to contain 25 U/ml γIFN and 0.1 μg/ml LPS and the cultures incubated a further. The cells are then rinsed twice in HEPES- buffered Krebs salt solution with 0.1% glucose. Carrier-free tetra-^3H-arginine is added to each well (2.5 μCi/well with specific activity of […]) and the active uptake of arginine is allowed to continue for a 5 minute period after which the cells are rapidly cooled to 0° C. by lavage with iced saline containing 10 mM unlabeled arginine to displace any externally bound label. The contents of the washed cells are solubilized in 100 Al of formic acid and counted by standard techniques. In subsequent experiments to determine the acitivity of the inhibitors, incubations were performed for 8 hours.
as §3

TNF = TNF production by LPS/γIFN-stimulated RAW 264.7 cells; format: cell-based, murine; conditions: even at concentrations of 10 μM
Experimental: RAW 264.7 cells were plated in standard 6-well culture plates at a density of 10^6/well and allowed to adhere for from 2 hr to overnight. The medium was then replaced with medium containing the compound to be tested. One hour later, the medium was supplemented so as to contain 25 U/ml γIFN and 0.1 μg/ml LPS and the cultures incubated a further 18 hr. The medium was then collected, and cell debris removed by centrifugation. This conditioned supernatant was then assayed for the presence of TNF using standard methodologies: L929 cell cytotoxicity bioassay, radioimmunoassay or ELISA, and Western blotting with antibodies against murine TNF.

[5] = system: Endothelial Derived Relaxing Factor (EDRF) activity; experiment: Acetylcholine-induced hypotensive (EDRF) response; format: in vivo, rats; conditions: 10 mg/Kg single intra-arterial dose; blood pressure 30 sec after ACh
Experimental: Female Sprague-Dawley rats (225-250 g body weight) were anesthetized with nembutal (50 mg/Kg, i.p.), a tracheostomy tube was inserted, and the carotid artery and jugular vein cannulated by standard methods using polyethylene tubing (PE 50). Tracey, K. J., et al., 1986, SCIENCE 234, 470-474. Blood pressure was recorded continuously with a pressure transducer and recorder (Model RS-3200, Gould Inc.,). In the experiment shown here, animals received a single sterile intra-arterial dose of either N^G-methyl-L-arginine (NMA; Sigma; 10 mg/Kg), Compound No. 14 (50 mg/Kg), or vehicle (0.4 ml). Acetylcholine (ACh) diluted in LPS-free sterile water was administered via the jugular vein cannula at the doses indicated. The solutions were diluted to produce a constant injectable volume of 1 ml/Kg body weight.
The hypotensive (EDRF) response was measured as the decline in mean arterial blood pressure recorded 30 sec after administration of ACh. The number of animals studied at each dose of acetylcholine was 4-6 for each experimental condition; data are expressed as the mean +s.e.m.

[6] = dose 23.3 (dose unit not given)

COc1ccc(C=NNC(=N)N)cc1OCCCOc1cc(C=NNC(=N)N)ccc1OC.Cl.Cl [Compound 18, 3,3′-(trimethylenedioxy)di-p-anisaldehyde bis(amidinohydrazone) dihydrochloride]
pIC50 (RAW 264.7 cells [1]; Mus musculus, RAW264.7): 4.60
urea % suppression of induced production (RAW 264.7 cells [1]; dose 233 μM): 100%
urea % suppression of induced production (RAW 264.7 cells [1]; dose 7.7 (dose unit not given)): 9%
urea % suppression of induced production (RAW 264.7 cells [1]; [6]): 30%
no2/no3 % suppression of induced production (RAW 264.7 cells [2]; dose 233 μM): 100%
no2/no3 % suppression of induced production (RAW 264.7 cells [2]; dose 7.7 (dose unit not given)): 0%
no2/no3 % suppression of induced production (RAW 264.7 cells [2]; [6]): 13%
melting point: 233 to 235 °C
Dissolved in (solubility) [3]: Not soluble

CC(=NNC(=N)N)c1cccc(OCCOc2cccc(C(C)=NNC(=N)N)c2)c1.Cl.Cl [Compound 15, 2,2′-[1,2-ethanediylbis(oxy-3,1-phenyleneethylidyne)] bishydrazinecarboximidamide dihydrochloride]
urea % suppression of induced production (RAW 264.7 cells [1]; dose 5 μM): 8%
urea % suppression of induced production (RAW 264.7 cells [1]; dose 15.0 μM): 100%
urea % suppression of induced production (RAW 264.7 cells [1]; dose 150 μM): 100%
pIC50 (RAW 264.7 cells [1]): 5.00
no2/no3 % suppression of induced production (RAW 264.7 cells [2]; dose 5 μM): 0%
no2/no3 % suppression of induced production (RAW 264.7 cells [2]; dose 15.0 μM): 9%
no2/no3 % suppression of induced production (RAW 264.7 cells [2]; dose 150 μM): 100%
arginine transport % suppression of induced peak (RAW 264.7 cells [4]; dose 5 μM): 10%
arginine transport % suppression of induced peak (RAW 264.7 cells [4]; dose 15.0 μM): 35%
arginine transport % suppression of induced peak (RAW 264.7 cells [4]; dose 150 μM): 100%
Dissolved in (solubility) [3]: Not soluble;

Cl.Cl.N=C(N)NN=Cc1cccc(OCCOc2cccc(C=NNC(=N)N)c2)c1 [Compound 16, 3,3′-(ethylenedioxy)dibenzaldehyde bis(amidinohydrazone) dihydrochloride]
pIC50 (RAW 264.7 cells [1]; Mus musculus, RAW264.7): 5.00 to 6.00
urea % suppression of induced production (RAW 264.7 cells [1]; dose 5 μM): 40%
urea % suppression of induced production (RAW 264.7 cells [1]; dose 25 μM): 100%
urea % suppression of induced production (RAW 264.7 cells [1]; dose 250 μM): 100%
no2/no3 % suppression of induced production (RAW 264.7 cells [2]; dose 5 μM): 17%
no2/no3 % suppression of induced production (RAW 264.7 cells [2]; dose 25 μM): 90%
no2/no3 % suppression of induced production (RAW 264.7 cells [2]; dose 250 μM): 100%
melting point: 264 to 266 °C
arginine transport % suppression of induced peak (RAW 264.7 cells [4]; dose 5 μM): 26%
arginine transport % suppression of induced peak (RAW 264.7 cells [4]; dose 25 μM): 44%
arginine transport % suppression of induced peak (RAW 264.7 cells [4]; dose 250 μM): 100%
Dissolved in (solubility) [3]: Not soluble;

CNC(=N)NCCC[C@H](N)C(=O)O [NMA, N^G-methyl-L-arginine, reference compound]
inhibition of the production of TNF (TNF): did not inhibit
acetylcholine-induced EDRF activity in vivo [5]: inhibited

COc1cc(C=NNC(=N)N)ccc1OCCOc1ccc(C=NNC(=N)N)cc1OC.Cl.Cl [Compound 17, 4,4′-(ethylenedioxy)di-m-anisaldehyde bis(amidinohydrazone) dihydrochloride]
pIC50 (RAW 264.7 cells [1]; Mus musculus, RAW264.7): 3.82
urea % suppression of induced production (RAW 264.7 cells [1]; dose 177 μM): 54-100%
no2/no3 % suppression of induced production (RAW 264.7 cells [2]; dose 177 μM): 71-87%
melting point: 322 to 323 °C (dec.)
Dissolved in (solubility) [3]: Not soluble

Reference: US20020028851A1, “Guanylhydrazones and their use to treat inflammatory conditions” (priority 1994, published 2002)
